Measured values: publication PMC11280390, “Synthesis of Nitrostyrylthiazolidine-2,4-dione Derivatives Displaying Antileishmanial Potential” (Pharmaceuticals, 2024)

Row | SMILES | melting point
1 | CC(=O)CN1C(=O)S/C(=C\c2ccccc2)C1=O [Compound 13a, (Z)-5-Benzylidene-3-(2-oxopropyl)thiazolidine-2,4-dione] | 139 to 140 °C
2 | CC(=O)CN1C(=O)S/C(=C\c2ccccc2[N+](=O)[O-])C1=O [Compound 13b, (Z)-5-(2-Nitrobenzylidene)-3-(2-oxopropyl)thiazolidine-2,4-dione] | 146 to 148 °C
3 | N#CCN1C(=O)S/C(=C\c2ccccc2)C1=O [Compound 14a, (Z)-2-(5-Benzylidenethiazolidine-2,4-dion-3-yl)acetonitrile] | 230 to 232 °C
4 | CC(=O)CN1C(=O)S/C(=C\c2cccc([N+](=O)[O-])c2)C1=O [Compound 13c, (Z)-5-(3-Nitrobenzylidene)-3-(2-oxopropyl)thiazolidine-2,4-dione] | 188 to 190 °C
5 | CCOC(=O)CN1C(=O)S/C(=C\c2cc(OC)c(OC)c(OC)c2)C1=O [Compound 12e] | 145 to 147 °C
6 | N#CCN1C(=O)S/C(=C\c2ccccc2[N+](=O)[O-])C1=O [Compound 14b, (Z)-2-(5-(2-Nitrobenzylidene)thiazolidine-2,4-dion-3-yl)acetonitrile] | 119 to 120 °C
7 | CC(=O)CN1C(=O)S/C(=C\c2ccc([N+](=O)[O-])cc2)C1=O [Compound 13d, (Z)-5-(4-Nitrobenzylidene)-3-(2-oxopropyl)thiazolidine-2,4-dione] | 207 to 209 °C
8 | COc1cc(/C=C2\SC(=O)NC2=O)cc(OC)c1OC [Compound 6] | 185 to 187 °C
9 | COc1cc(/C=C2\SC(=O)N(CC(C)=O)C2=O)cc(OC)c1OC [Compound 13e] | 139 to 140 °C

Results, then the compound that gave them:

Row | melting point | SMILES
10 | 187 to 189 °C | COc1cc(/C=C2\SC(=O)N(CC(=O)c3ccccc3)C2=O)cc(OC)c1OC [Compound 16e, (Z)-3-(2-Oxo-2-phenylethyl)-5-(3,4,5-trimethoxybenzylidene)thiazolidine-2,4-dione]
11 | 259 to 261 °C | O=C(CN1C(=O)S/C(=C\c2ccc([N+](=O)[O-])cc2)C1=O)Nc1ccccc1 [Compound 23d, (Z)-2-(5-(4-Nitrobenzylidene)thiazolidine-2,4-dion-3-yl)-N-phenylacetamide]
12 | 222 to 223 °C | COc1cc(/C=C2\SC(=O)N(CC(=O)Nc3ccccc3Cl)C2=O)cc(OC)c1OC [Compound 28e, (Z)-N-(2-Chlorophenyl)-2-(5-(3,4,5-trimethoxybenzylidene)thiazolidine-2,4-dion-3-yl)acetamide]
13 | 281 to 283 °C | NC(=O)CN1C(=O)S/C(=C\c2ccc([N+](=O)[O-])cc2)C1=O [Compound 15d, (Z)-2-(5-(4-Nitrobenzylidene)thiazolidine-2,4-dion-3-yl)acetamide]
14 | 232 to 233 °C | O=C(CN1C(=O)S/C(=C\c2ccc([N+](=O)[O-])cc2)C1=O)c1ccccc1 [Compound 16d, (Z)-5-(4-Nitrobenzylidene)-3-(2-oxo-2-phenylethyl)thiazolidine-2,4-dione]
15 | 215 to 216 °C | COc1ccc(NC(=O)CN2C(=O)S/C(=C\c3cc(OC)c(OC)c(OC)c3)C2=O)cc1 [Compound 25e, (Z)-N-(4-Methoxyphenyl)-2-(5-(3,4,5-trimethoxybenzylidene)thiazolidine-2,4-dion-3-yl)acetamide]
16 | 255 to 257 °C | O=C(CN1C(=O)S/C(=C\c2cccc([N+](=O)[O-])c2)C1=O)Nc1ccccc1 [Compound 23c, (Z)-2-(5-(3-Nitrobenzylidene)thiazolidine-2,4-dion-3-yl)-N-phenylacetamide]
17 | 270 to 272 °C | O=C(CN1C(=O)S/C(=C\c2ccccc2)C1=O)Nc1ccc([N+](=O)[O-])cc1 [Compound 26a, (Z)-2-(5-Benzylidenethiazolidine-2,4-dion-3-yl)-N-(4-nitrophenyl)acetamide]
18 | 253 to 254 °C | COc1cc(/C=C2\SC(=O)N(CC(=O)Nc3ccc([N+](=O)[O-])cc3)C2=O)cc(OC)c1OC [Compound 26e, (Z)-N-(4-Nitrophenyl)-2-(5-(3,4,5-trimethoxybenzylidene)thiazolidine-2,4-dion-3-yl)acetamide]
19 | 229 to 231 °C | NC(=O)CN1C(=O)S/C(=C\c2ccccc2)C1=O [Compound 15a, (Z)-2-(5-Benzylidenethiazolidine-2,4-dion-3-yl)acetamide]
20 | 259 to 260 °C | O=C(CN1C(=O)S/C(=C\c2ccccc2)C1=O)Nc1ccccc1 [Compound 23a]
21 | 182 to 183 °C | O=C(CN1C(=O)S/C(=C\c2ccccc2)C1=O)c1ccccc1 [Compound 16a]
22 | 274 to 275 °C (dec.) | COc1cc(/C=C2\SC(=O)N(CC(N)=O)C2=O)cc(OC)c1OC [Compound 15e]
23 | 243 to 245 °C | O=C(CN1C(=O)S/C(=C\c2ccccc2)C1=O)Nc1ccccc1Cl [Compound 28a, (Z)-2-(5-Benzylidenethiazolidine-2,4-dion-3-yl)-N-(2-chlorophenyl)acetamide]
24 | 233 to 235 °C | NC(=O)CN1C(=O)S/C(=C\c2ccccc2[N+](=O)[O-])C1=O [Compound 15b, (Z)-2-(5-(2-Nitrobenzylidene)thiazolidine-2,4-dion-3-yl)acetamide]
25 | 196 to 198 °C | COc1cc(/C=C2\SC(=O)N(CC(=O)Nc3ccc(C)cc3)C2=O)cc(OC)c1OC [Compound 24e, (Z)-N-(4-Methylphenyl)-2-(5-(3,4,5-trimethoxybenzylidene)thiazolidine-2,4-dion-3-yl)acetamide]
26 | 254 to 256 °C | COc1ccc(NC(=O)CN2C(=O)S/C(=C\c3ccc([N+](=O)[O-])cc3)C2=O)cc1 [Compound 25d, (Z)-N-(4-Methoxyphenyl)-2-(5-(4-nitrobenzylidene)thiazolidine-2,4-dion-3-yl)acetamide]
